Laboratory results: publication PMC9019100, “Development of NanoLuc-targeting protein degraders and a universal reporter system to benchmark tag-targeted degradation platforms” (Nature Communications, 2022)
Values joined by “and” are separate entries in the source; they are usually repeats but may differ in a detail not shown here. Identical values can stand only once. Like-named read-outs stand apart in the source and are kept apart here.

Columns and labels:
[1] = target: T1, Halo-EGFP-NanoLuc-FKBP^F36V (H-E-N-F) fusion protein (UniProt P0A3G2+P62942+Q9GV45, A155T/A167V/A172T/A224E/A31E/A60N/A81I/C128F/C176G/D78G/E160K/E257K/F37V/F95D/H272N/I117V/K175M/K195N/K70R/L47V/L54V/L88M/L99Q/M102K/N193R/N227D/P142E/P291S/Q151K/Q38R/Q45L/S2A/S58T/T264A/V71I/Y165I/Y273L/Y87F); assay type: cell-based; settings: +dox; for Blank corrected (470-80) luminescence: single well replicates; for Blank corrected Raw Data (470-80): PROTAC 500nM, replicate wells
Target sequence in this assay (Q9GV45 other isoform, or with tags, fused parts or gaps with the stated changes): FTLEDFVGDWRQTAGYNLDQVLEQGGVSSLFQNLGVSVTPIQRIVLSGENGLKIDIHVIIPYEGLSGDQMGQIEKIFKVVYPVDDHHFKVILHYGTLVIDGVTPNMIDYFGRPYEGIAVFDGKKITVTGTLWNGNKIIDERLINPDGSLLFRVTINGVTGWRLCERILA
Target sequence in this assay (P0A3G2 other isoform, or with tags, fused parts or gaps with the stated changes): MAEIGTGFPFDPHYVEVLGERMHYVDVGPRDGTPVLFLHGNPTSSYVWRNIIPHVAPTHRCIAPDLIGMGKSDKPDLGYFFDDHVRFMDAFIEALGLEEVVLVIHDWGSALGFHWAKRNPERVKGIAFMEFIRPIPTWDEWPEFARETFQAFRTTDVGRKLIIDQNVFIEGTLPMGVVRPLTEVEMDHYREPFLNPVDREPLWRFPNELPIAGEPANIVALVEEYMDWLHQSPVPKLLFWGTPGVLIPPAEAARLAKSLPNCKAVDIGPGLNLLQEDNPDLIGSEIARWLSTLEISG
Target sequence in this assay (P62942 whole entry F37V, the tested form may be a part): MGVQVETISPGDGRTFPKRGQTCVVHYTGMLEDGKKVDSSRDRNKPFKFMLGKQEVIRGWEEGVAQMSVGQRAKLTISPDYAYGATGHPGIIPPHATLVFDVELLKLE

[2] = test system: MLKL^−/− HT29 cells expressing MLKL-FKBP^F36V; assay type: cell-based; settings: for TNF+911+zVAD (PI exclusion): MLKL-/- + MLKL FKBPF36V, replicate columns
Method: (§1) Cell death was assessed by flow cytometric analysis of PI exclusion. […] Cell death was assessed by flow cytometric analysis of PI exclusion. […] Cell death was assessed by flow cytometric analysis of PI exclusion. e N = 4, f N = 3 independent experiments (symbols), EB represent mean ± SD. g Western from MLKL^−/−CASP8^−/− HT29 cells stably expressing the doxycycline-inducible C-terminal fusion protein, MLKL-NanoLuc (MLKL-NLuc) and constitutively expressing the C-terminal fusion protein caspase-8-FKBP^F36V. […] Cell death was assessed using an IncuCyte and Cytotox-Red uptake. N = 3 independent experiments, one representative experiment shown, EB represent mean ± SD.
(§2) Degrader compounds or a DMSO vehicle control were added for 5 h, as stated in the Fig. legends. Cells were detached using Trypsin-EDTA (Merck) and resuspended in cell supernatants containing 10 μg/mL propidium iodide (PI). PI exclusion analysis was performed using an LSR II flow cytometer (Becton Dickinson, NJ) with 10,000 single-cell events per sample. Flow cytometry data were analysed using WEASEL version 2.7 software (Frank Battye).

[3] = test system: MLKL^−/− HT29 cells expressing untagged MLKL; assay type: cell-based; settings: MLKL-/- + MLKL, TNF+911+zVAD, replicate columns
Method: as §1, §2

wild-type HT29 cells = test: Necroptosis assay (PI exclusion, flow cytometry), wild-type HT29 cells, TNF+SM+IDN; assay type: cell-based, human; settings: sheet S5G
In short: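 HT29 cells were pretreated 5 h with 500 nM degrader or DMSO, then stimulated 24 h with TNF (100 ng/mL), Smac mimetic compound A (500 nM–1 µM) and emricasan (IDN, 5 µM). Cell death was scored by flow cytometry as PI uptake (10 μg/mL PI, 10,000 events/sample), N = 3 replicates.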

caspase-8-FKBP^F36V = target: T2, caspase-8-FKBP^F36V (Homo sapiens, UniProt P62942, F37V); assay type: cell-based; settings: 5 h
T2 construct: expressed in transfected cells; host or cells: MLKL-/-CASP8-/- HT29, constitutive expression
T2 sequence (P62942 whole entry F37V): as the sequence (P62942 whole entry F37V, the tested form may be a part) above

[4] = test system: MLKL^−/−CASP8^−/− HT29 cells expressing MLKL-NLuc and caspase-8-FKBP^F36V; settings: TNF+SM
[5] = target: T1, Halo-EGFP-NanoLuc-FKBP^F36V (H-E-N-F) fusion protein; assay type: cell-based; set-up: expressed in transfected cells; host or cells: immortalized mouse dermal fibroblasts (iMDFs), ubiquitin promoter, constitutive; settings: 500 nM
Target sequence in this assay (P0A3G2 other isoform, or with tags, fused parts or gaps with the stated changes): as the sequence (P0A3G2 other isoform, or with tags, fused parts or gaps with the stated changes) above
Target sequence in this assay (Q9GV45 other isoform, or with tags, fused parts or gaps with the stated changes): as the sequence (Q9GV45 other isoform, or with tags, fused parts or gaps with the stated changes) above
Target sequence in this assay (P62942 whole entry F37V, the tested form may be a part): as the sequence (P62942 whole entry F37V, the tested form may be a part) above

## CC[C@H](C(=O)N1CCCC[C@H]1C(=O)O[C@H](CCc1ccc(OC)c(OC)c1)c1ccccc1OCC(=O)NCCCCCCC(=O)N[C@H](C(=O)N1C[C@H](O)C[C@H]1C(=O)N[C@@H](C)c1ccc(-c2scnc2C)cc1)C(C)(C)C)c1cc(OC)c(OC)c(OC)c1 [FV1]
[1]; 3.9nM PROTAC
  Blank corrected (470-80) luminescence: 31936 and 32480 and 32608 and 31981
[1]; 7.8nM PROTAC
  Blank corrected (470-80) luminescence: 24693 and 21134 and 25624 and 20591
[1]; 31.25nM PROTAC
  Blank corrected (470-80) luminescence: 9757 and 8948 and 8891 and 8313
[1]; 62.5nM PROTAC
  Blank corrected (470-80) luminescence: 5245 and 5647 and 5355 and 5575
[1]; 250nM PROTAC
  Blank corrected (470-80) luminescence: 2257 and 3039 and 2286 and 2469
[1]; 500nM PROTAC, 5h
  Blank corrected (470-80) luminescence: 3865 and 3357 and 3449 and 3849
[1]; 500nM PROTAC, 8h
  Blank corrected (470-80) luminescence: 4070 and 3846 and 4184 and 2817
[1]; 500nM PROTAC, 24h
  Blank corrected (470-80) luminescence: 5571 and 3433 and 4739
[1]; 500nM PROTAC
  Blank corrected (470-80) luminescence: 1404 and 1634 and 1510 and 1568
[1]; 1uM PROTAC
  Blank corrected (470-80) luminescence: 1692 and 1683 and 1666 and 1785
[1]; DMSO (control) co-treatment
  Blank corrected Raw Data (470-80): 1481 and 2747 and 2028
[1]; co-treatment with MG132 (10uM)
  Blank corrected Raw Data (470-80): 32421 and 46504 and 47437 and 52425
[2]; 5 h pre-treatment, then TSZ 24 h
  concentration sustaining cell survival over 24 h: 3.9 nM
[2]; degrader 3.9nM
  TNF+911+zVAD (PI exclusion): 77.6 and 82.1 and 75.3
[2]; degrader 7.8nM
  TNF+911+zVAD (PI exclusion): 84.5 and 86.7 and 79.8
[2]; degrader 31.25nM
  TNF+911+zVAD (PI exclusion): 80.9 and 86.7 and 82.1
[2]; degrader 62.5nM
  TNF+911+zVAD (PI exclusion): 79.4 and 87 and 83.1
[2]; degrader 250nM
  TNF+911+zVAD (PI exclusion): 80.6 and 84.5 and 80.8
[2]; degrader 500nM
  TNF+911+zVAD (PI exclusion): 69.7 and 81.6 and 78.5
[2]; degrader 1000nM
  TNF+911+zVAD (PI exclusion): 63.8 and 77.3 and 74.7
[3]; degrader 3.9nM
  TNF+911+zVAD (PI exclusion): 5.8 and 7 and 7.6
[3]; degrader 7.8nM
  TNF+911+zVAD (PI exclusion): 6.7 and 5.9 and 5.7
[3]; degrader 31.25nM
  TNF+911+zVAD (PI exclusion): 5.8 and 6 and 5.7
[3]; degrader 62.5nM
  TNF+911+zVAD (PI exclusion): 6.1 and 6.6 and 5.2
[3]; degrader 250nM
  TNF+911+zVAD (PI exclusion): 6.3 and 5.6 and 5.3
[3]; degrader 500nM
  TNF+911+zVAD (PI exclusion): 5.9 and 5.1 and 4.5
[3]; degrader 1000nM
  TNF+911+zVAD (PI exclusion): 5.8 and 4.9 and 5
wild-type HT29 cells; TNF+SM+IDN
  viable cells (PI exclusion): 9.5 and 6.6 and 6.1
wild-type HT29 cells; Unt (no death stimulus)
  viable cells (PI exclusion): 76.3 and 74.4 and 69.6
caspase-8-FKBP^F36V
  depletion of caspase-8-FKBP^F36V: could be depleted
[4]; elapsed 0 h
  Cytotox-Red uptake (cell death), IncuCyte: 162.812
[4]; elapsed 0.5 h
  Cytotox-Red uptake (cell death), IncuCyte: 163.75
[4]; elapsed 1 h
  Cytotox-Red uptake (cell death), IncuCyte: 172.188
[4]; elapsed 2 h
  Cytotox-Red uptake (cell death), IncuCyte: 261.562
[4]; elapsed 3 h
  Cytotox-Red uptake (cell death), IncuCyte: 541.625
[4]; elapsed 4 h
  Cytotox-Red uptake (cell death), IncuCyte: 907.75
[4]; elapsed 5 h
  Cytotox-Red uptake (cell death), IncuCyte: 1277
[4]; elapsed 6 h
  Cytotox-Red uptake (cell death), IncuCyte: 1576.88
[4]; elapsed 6.5 h
  Cytotox-Red uptake (cell death), IncuCyte: 1701.5
[4]; elapsed 7 h
  Cytotox-Red uptake (cell death), IncuCyte: 1872.81
[4]; elapsed 7.5 h
  Cytotox-Red uptake (cell death), IncuCyte: 1974.44
[4]; elapsed 8 h
  Cytotox-Red uptake (cell death), IncuCyte: 2103.31
[4]; elapsed 9 h
  Cytotox-Red uptake (cell death), IncuCyte: 2328
[4]; elapsed 9.5 h
  Cytotox-Red uptake (cell death), IncuCyte: 2410.25
[4]; elapsed 10 h
  Cytotox-Red uptake (cell death), IncuCyte: 2505.44
[4]; elapsed 10.5 h
  Cytotox-Red uptake (cell death), IncuCyte: 2578.38
[4]; elapsed 11 h
  Cytotox-Red uptake (cell death), IncuCyte: 2647
[4]; elapsed 12 h
  Cytotox-Red uptake (cell death), IncuCyte: 2777.19
[4]; elapsed 13 h
  Cytotox-Red uptake (cell death), IncuCyte: 2864.25
[4]; elapsed 13.5 h
  Cytotox-Red uptake (cell death), IncuCyte: 3026.81
[4]; elapsed 14 h
  Cytotox-Red uptake (cell death), IncuCyte: 2985.5
[4]; elapsed 14.5 h
  Cytotox-Red uptake (cell death), IncuCyte: 2992.62
[4]; elapsed 15 h
  Cytotox-Red uptake (cell death), IncuCyte: 3009.12
[4]; elapsed 16 h
  Cytotox-Red uptake (cell death), IncuCyte: 3103.38
[4]; elapsed 17 h
  Cytotox-Red uptake (cell death), IncuCyte: 3055.31
[4]; elapsed 18 h
  Cytotox-Red uptake (cell death), IncuCyte: 3042.38
[4]; elapsed 19 h
  Cytotox-Red uptake (cell death), IncuCyte: 3048.56
[4]; elapsed 19.5 h
  Cytotox-Red uptake (cell death), IncuCyte: 3013.69
[5]; 5, 24 or 48 h
  time up to which degradation was seen, degrader left in the medium: up to 48 h
[5]; 24 or 48 h after removal
  time up to which degradation was maintained, degrader removed at 5 h: up to 48 h
